For 7 molecules, IC50 results are on record in US20230406853A1, “COVALENT CDK2-BINDING COMPOUNDS FOR THERAPEUTIC PURPOSES” (Umbra Therapeutics, Inc., priority 2021, published 2023).

SMILES strings stand for the structures.

In this experiment the target is CycE1-CDK2 (Homo sapiens, UniProt P24941). Kind of experiment: Cdk2 Enzymatic TR-FRET Assay. Format: biochemical. The note with it: CDK2/CycE 5 nM, ATP 100 μM, 60 minutes pre-incubation with compound; read-out: CDK2 Kinase. An excerpt: A TR-FRET system was used to detect CycE1-CDK2 kinase activity. The assay used a Europium-labeled anti-phospho-Ser/Thr antibody and ULight™-labeled peptide substrate (eIF4E-binding protein 1). When CycE1-CDK2 phosphorylates the peptide the phosphorylated Thr is recognized by the Europium-labeled anti-phospho-Ser/Thr antibody. Upon excitation of the Europium donor fluorophore at 337 nm, energy is transferred to the ULight™ acceptor dye on the substrate, resulting in the emission of light at 665 nm. The fluorescent signal is proportional to the level of ULight™ peptide phosphorylation and to the kinase activity.
The stock solution was prepared as follows: • 1× Reaction buffer: 50 mM HEPES pH 7.5, 10 mM MgCl2, 0.5 mM TCEP, 0.01% Tween®20, 1 mM EGTA, 0.001% fatty acid free (faf)-BSA; • 1× Detection buffer: equilibrate the Detection buffer at RT for at least 20 minutes then dilute 10-fold the stock in water; • 4×ENZYME mix: CDK2/CycE enzyme (5 nM final concentration in kinase reaction) in 1× Reaction buffer; • 4×SUBSTRATE mix: 4E-BP substrate (50 nM final concentration in kinase reaction)+ATP (100 μM final concentration in kinase reaction) in 1× Reaction buffer • 2×STOP/DETECTION mix: EDTA (10 mM final concentration in assay)+Anti-Phosphate antibody (0.5 nM final concentration in assay) in 1× Detection buffer • Neutral Control: Assay with no inhibition (MAX activity) • Inhibitor Control: Assay with IC100 (1 mM) reference inhibitor JNJ7706621 (MIN activity)
The assay was assembled directly in a white, small volume, Proxiplate (PerkinElmer) as follows: • Step 1: Charge compounds=5 μL/well • Step 2: Charge kinase=2.5 μL/well→total volume 7.5 μL/well • The plate is sealed and incubated at room temperature for 60 minutes • Step 3: Substrate mix (substrate/ATP)=2.5 μL/well→total enzymatic reaction volume 10 μL/well • The plate is sealed and incubated at room temperature for 60 minutes • Step 4: Stop/Detection mix (EDTA/antibody)=10 μL/well→total volume 20 μL/well • The plate is sealed and incubated at room temperature for at least 2 hours and fluorescence signal is measured at PHERAstar FSX The reading conditions are the followings for PHERAstar FSX:
A 384-microtiter plate (MTP), containing 20 test compounds in eight-points dose response, is prepared. Test compounds dose response curves are prepared in automation in 100% DMSO in a CyBio Felix, starting from a DMSO stock solution of 10 mM. To obtain the eight-points dose-response curve, a serial dilution protocol in 100% DMSO is performed for each compound by using a 96 MTP as a support. 20 μL of the 10 mM stock solutions are transferred in row A of a 96 MTP U-bottom from column 2 to 11 for a total of 10 compounds/plate. Starting from the 10 mM stock, serial dilutions across rows, from A to B and proceeding up to H, are performed for each compound by transferring 6.3 μL of the more concentrated fluid in 13.7 μL of 100% DMSO.
In order to generate duplicate data points each well of the 96 MTP is then replicated into two wells of a 384 MTP plate for each compound and for each concentration to be tested. The 384 MTP compound plate is used as source plate in a “mother to child” process with a CyBi®-Well dispenser in which 1 μL of compound is moved into a destination plate pre-filled with 24 μL of reaction buffer, obtaining 2× concentrated compound solution.
Genedata Screener® 17.0 was used for data analysis. In the implemented workflow, the following calculations were conducted: • Calculate the Response Value (KRV) from the respective original data as follow:
HTRF Assay: Ratio=665 nm_FRET/620 nm_Ab*10000 • Calculate the % Inhibition of the compound (Inhibitory effect). KRV was normalized versus Neutral Controls and Inhibitor Controls (JNJ7706621) to obtain Activity % according to the following formula:
Activity %=−100*(x−<Neutral Control>)/(<Inhibitor Control>−<Neutral Control>) […]

Consider `CC(C(=O)Nc1ccc(S(=O)(=O)n2cncn2)cc1)n1c(=O)ccc2cnc(NC3CCN(S(C)(=O)=O)CC3)nc21` (stereo not shown) [Compound 294], for which the IC50 was below 10 µM.
The result for `O=C(Cn1c(=O)ccc2cnc(NC3CCCCCC3)nc21)Nc1ccc(S(=O)(=O)n2cnc(C3CC3)n2)cc1` [Compound 295] reads above 200 µM; that for `CS(=O)(=O)N1CCC(Nc2ncc3cc(CO)c(=O)n(CCCS(=O)(=O)n4cncn4)c3n2)CC1` [Compound 296], below 10 µM.
To `CS(=O)(=O)N1CCC(Nc2ncc3cc(CCO)c(=O)n(CCCS(=O)(=O)n4cncn4)c3n2)CC1` [Compound 297] belongs below 10 µM; to `Cc1cc2cnc(NC3CCN(S(C)(=O)=O)CC3)nc2n(CCCS(=O)(=O)n2cncn2)c1=O` [Compound 298], below 10 µM; to `Cc1cc2cnc(NC3CCN(S(C)(=O)=O)CC3)nc2n(CCCS(=O)(=O)n2cnc(-c3ccccc3)n2)c1=O` [Compound 299], below 10 µM.
In the case of `CS(=O)(=O)N1CCC(Nc2ncc3cc(CO)c(=O)n(CCCS(=O)(=O)n4cnc(C5CC5)n4)c3n2)CC1` [Compound 300], the IC50 is below 10 µM.
